Test results taken from ChEMBL document CHEMBL4837259, “Comprehensive Approach of 19F Nuclear Magnetic Resonance, Enzymatic, and In Silico Methods for Site-Specific Hit Selection and Validation of Fragment Molecules that Inhibit Methionine γ-Lyase Activity” (J Med Chem, 2021).
Calls of active or inactive are those of the source. The calls are words filed in the database; no cut-off is given here.

Experiments:
[1] = tested on: Fusobacterium nucleatum; test: Inhibition of Fusobacterium nucleatum ATCC 25586 recombinant MGL R373A mutant expressed in Escherichia coli BL21 (DE3) assessed as decrease in signal intensity by measuring recovery ratio by 19F NMR based competition assay relative to wild type; parameters: scale not given: the % may be the effect or the level left
[2] = tested on: Fusobacterium nucleatum; test: Inhibition of Fusobacterium nucleatum ATCC 25586 recombinant MGL R373K mutant expressed in Escherichia coli BL21 (DE3) assessed as decrease in signal intensity by measuring recovery ratio by 19F NMR based competition assay relative to wild type; parameters: concentration or dose not given beside the values
[3] = tested on: Fusobacterium nucleatum; test: Inhibition of Fusobacterium nucleatum ATCC 25586 recombinant MGL Y111F mutant expressed in Escherichia coli BL21 (DE3) assessed as decrease in signal intensity by measuring recovery ratio by 19F NMR based competition assay relative to wild type; parameters: concentration or dose not given beside the values
[4] = tested on: Fusobacterium nucleatum; test: Inhibition of Fusobacterium nucleatum ATCC 25586 recombinant MGL Y56F mutant expressed in Escherichia coli BL21 (DE3) assessed as decrease in signal intensity by measuring recovery ratio by 19F NMR based competition assay relative to wild type; parameters: concentration or dose not given beside the values
[5] = tested on: Fusobacterium nucleatum; test: Inhibition of Fusobacterium nucleatum ATCC 25586 recombinant MGL R58K mutant expressed in Escherichia coli BL21 (DE3) assessed as decrease in signal intensity by measuring recovery ratio by 19F NMR based competition assay relative to wild type; parameters: scale not given: the % may be the effect or the level left
[6] = tested on: Fusobacterium nucleatum; test: Inhibition of Fusobacterium nucleatum ATCC 25586 recombinant MGL C113S mutant expressed in Escherichia coli BL21 (DE3) assessed as decrease in signal intensity by measuring recovery ratio by 19F NMR based competition assay relative to wild type; parameters: scale not given: the % may be the effect or the level left
[7] = tested on: Fusobacterium nucleatum; test: Inhibition of Fusobacterium nucleatum ATCC 25586 recombinant MGL K238A mutant expressed in Escherichia coli BL21 (DE3) assessed as decrease in signal intensity by measuring recovery ratio by 19F NMR based competition assay relative to wild type; parameters: concentration or dose not given beside the values
[8] = target: T1, L-methionine gamma-lyase (Fusobacterium nucleatum subsp. nucleatum) (UniProt Q8RDT4); test: Inhibition of Fusobacterium nucleatum ATCC 25586 recombinant wild type MGL expressed in Escherichia coli BL21 (DE3) assessed as decrease in signal intensity by 19F NMR based competition assay relative to control; parameters: concentration or dose not given beside the values
T1 sequence (whole entry): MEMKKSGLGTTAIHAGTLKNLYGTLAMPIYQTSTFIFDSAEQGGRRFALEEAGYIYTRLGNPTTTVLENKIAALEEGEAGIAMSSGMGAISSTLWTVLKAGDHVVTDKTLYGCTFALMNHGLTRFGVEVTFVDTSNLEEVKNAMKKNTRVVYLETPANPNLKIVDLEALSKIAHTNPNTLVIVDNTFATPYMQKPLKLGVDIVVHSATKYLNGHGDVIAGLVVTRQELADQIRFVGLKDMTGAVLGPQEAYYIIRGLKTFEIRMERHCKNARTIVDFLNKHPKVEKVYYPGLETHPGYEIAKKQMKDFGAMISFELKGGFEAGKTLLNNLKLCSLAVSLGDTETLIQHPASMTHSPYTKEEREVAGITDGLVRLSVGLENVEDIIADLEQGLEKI

[9] = target: T1, L-methionine gamma-lyase (Fusobacterium nucleatum subsp. nucleatum); test: Inhibition of Fusobacterium nucleatum ATCC 25586 recombinant wild type MGL expressed in Escherichia coli BL21 (DE3) assessed as formation of 2-ketobutyrate using L-methionine as substrate by enzymatic assay; parameters: concentration or dose not given beside the values; details: concentration not given here
[10] = tested on: Fusobacterium nucleatum; test: Inhibition of Fusobacterium nucleatum ATCC 25586 recombinant MGL R58A mutant expressed in Escherichia coli BL21 (DE3) assessed as decrease in signal intensity by measuring recovery ratio by 19F NMR based competition assay relative to wild type; parameters: scale not given: the % may be the effect or the level left

SMILES	Activity [1]	Activity [2]	Activity [3]	Activity [4]	Activity [5]	Activity [6]	Activity [7]	Activity [8]	inhibition [9]	Activity [10]
CC(C)(CC(=O)O)c1ccc(C(F)(F)F)cc1	50%	Active	80%	80%	80%	Active	50%	62%	11.3%	80%
CC(C)(C)OC(=O)N1CCC(CN)(Cc2ccccc2C(F)(F)F)CC1	Active	Active	Active	80%	80%	80%	Active	85%	56.5%	50%
CC(C)(C)OC(=O)N[C@H]1CC[C@H](N2Cc3ccc(F)cc3C2=O)CC1	Active	Active	Active	50%	50%	50%	Active	70%	-1.2%	Active
O=C(O)c1cn(-c2ccccc2F)cn1	50%	Active	Active	Active	80%	Active	inactive	26%	-5.3%	80%
COCCOc1ccc(C(=O)O)cc1C(F)(F)F	80%	50%	80%	80%	80%	50%	Active	67%	16.2%	80%
CC(C)(C)OC(=O)N1CCC(CN)(Cc2ccccc2F)CC1	inactive	Active	inactive	80%	50%	80%	inactive	63%	30.1%	Active
O=C(O)c1cc(OC(F)(F)F)ccn1	80%	Active	50%	80%	80%	Active	Active	4%	-6.8%	80%
O=C(O)c1cc(C(F)(F)F)nn1-c1ccccc1	50%	Active	80%	80%	80%	50%	Active	49%	23.9%	80%
O=C(O)c1cnc(OCC(F)(F)F)cn1	80%	Active	Active	80%	80%	Active	50%	49%	4.4%	80%
CC(C)(Cc1cccc(C(F)(F)F)c1)C(=O)O	80%	Active	50%	80%	80%	Active	50%	64%	27.5%	80%
CC(C)(CC(=O)O)c1ccc(F)cc1	80%	inactive	80%	80%	80%	inactive	50%	57%	-3.3%	80%
Nc1cc(F)c(OCC2CCC2)c(F)c1	inactive	inactive	Active	80%	50%	50%	50%	55%	11.6%	Active
